Measurements: patent US7202081B2, “Simultaneous determination of cell proliferation inhibition activity and toxicity” (Hoffmann-La Roche Inc., priority 2003, dated 2007)
Where two headings read alike, the source gives them in different places.

System: Human cord blood CD34+ cells
Experiment: cells
Format: cell-based
Details: for proliferation inhibition: CD34 cells, cell number, FIG. 3, concentration range for which the percentage of dead cells is stated; for IC50: Homo sapiens, cytokine stimulated CD34 cells; for percentage of dead cells to total cells: human
Method: Human cord blood CD34+ cells were isolated to high purity (>90%) by immunomagnetic cell sorting, aliquoted and frozen in DMSO containing medium. For cell culture setup, frozen CD34+ cells were thawed and 200 cells were seeded in 200 μl complete medium of a well of a 96 well plate. The basal cell culture medium consisted of IMDM-Medium supplemented with 20% human AB serum and antibiotics (pen/strep). The CD34+ cells were activated by addition of following cytokine cocktail: hu-SCF (100 ng/ml), hu-IL6 (10 ng/ml), hu-GM-CSF (100 U/ml), hu-TPO (25 ng/ml) and hu-EPO (5 U/ml). Cultivation was performed in incubators at 37° C., high humidity and 7% CO2.
Two different experimental setup were used: 1) addition of the inhibitor compound prior supplementation of the medium with cytokines to hit preferentially resting cells, and 2) addition of inhibitor compound 4 days after CD34 activation with cytokines to hit preferentially activated cells.
Dependent on the proliferation rate of the CD34+ cells, harvest and analysis of cell number and cytotoxicity was performed after 9–10 d cell culture. The cell number and cytotoxicity was analysed by FACS technique. The number of cells present in the well was counted by comparison with an internal bead standard. A aliquot of 10000 beads was added to each well harboring 200 μl medium volume FLUOSPHERES® polystyrene, 15 μm; Molecular Probes).
A gate, shown as rectangular region, was set onto the standard beads, a distinct number was counted, analysis was stopped and the corresponding volume of medium containing cells was calculated. […] The viable cells appear again in the middle/right position of the forward scatter (FSC) displaying low/no propidium iodide labeling. The few dead cells appear left or in the upper/left position relative to viable cell population. The FACS measurement took an aliqout count of the beads and calculated the number of cells being present within the well, whereas the cytotoxicity, the number of dead cells, was recorded in parallel during this measurement (addition of propidium iodide; final concentration 1 μg/ml). […] At the highest inhibitory and cytotoxic concentration very few cells were present anymore in the viable cell cluster and the majority of cells had been killed as evident by increased PI staining or fragmentation (panel H).
A typical example of the calculation of the number of CD34 cells and percentage of dead cells in a well is shown in FIG. 3 for two cytotoxic compounds, namely 5-fluorouracil and doxorubicine. […] The increase of the percentage of dead cells obtained from the analysis of the PI positive cell fraction (FIG. 2 panels E to H) is shown as solid line.

| IC50 (240 h, 9–10 d culture, FACS count against bead standard, tested 0.1–100 μmol/l, read-out: IC50 value for the cell number analysis) | percentage of dead cells to total cells | IC50 (240 h, 9–10 d culture, FACS count against bead standard, tested 1–1000 ng/ml, read-out: IC50 value (cell number) from IC50 calculation program) | IC50 (FIG. 3 legend, tested 1–1000 ng/ml, read-out: IC50 value for the cell number analysis) | SMILES | proliferation inhibition |
| --- | --- | --- | --- | --- | --- |
| 340 nM | 0-25% |  |  | O=c1[nH]cc(F)c(=O)[nH]1 [5-fluorouracil] | more than 50% |
|  | ~40% | 0.67 ng/mL | 0.67 ng/mL | COc1cccc2c1C(=O)c1c(O)c3c(c(O)c1C2=O)C[C@@](O)(C(=O)CO)C[C@@H]3O[C@H]1C[C@H](N)[C@H](O)[C@H](C)O1 [doxorubicine] | about 80% |
